Laboratory results: patent US20160242416A1, “FUNGICIDAL ISOXAZOLINE CARBINOLS” (E I DU PONT DE NEMOURS AND COMPANY, priority 2015, published 2016)

Assays:
[1] = tested on: Puccinia recondita f sp. tritici; assay: Test F: wheat leaf rust, preventive spray on wheat seedlings; settings: 10 ppm; wheat leaf rust; 100 = 100% disease control, 0 = no control
From the text: (§1) General protocol for preparing test solutions for Tests A-G: the test compounds were first dissolved in acetone in an amount equal to 3% of the final volume and then suspended at the desired concentration (in ppm) in acetone and purified water (50/50 mix by volume) containing 250 ppm of the surfactant PEG400 (polyhydric alcohol esters). The resulting test suspensions were then used in Tests A-G. Compounds were sprayed at a concentration of 50 ppm (*) or 10 ppm to the point of run-off on the test plants, the equivalent of a rate of 200 g/ha or 40 g/ha, respectively.
The test solution was sprayed to the point of run-off on wheat seedlings. The following day the seedlings were inoculated with a spore suspension of Puccinia recondita f sp. tritici; (the causal agent of wheat leaf rust) and incubated in a saturated atmosphere at 20° C. for 24 h, and then moved to a growth chamber at 20° C. for 6 days, after which time visual disease ratings were made.
A dash (-) indicates no test results. Compounds with an asterisks (*) were applied at a concentration of 50 ppm, otherwise test solutions were applied at 10 ppm.

Plasmopara viticola = assay: Test A: grape downy mildew, preventive spray on grape seedlings; type: in vivo; settings: 10 ppm, 100 = 100% disease control, 0 = no control
From the text: A dash (-) indicates no test results.

Botrytis cinerea = assay: Test B: gray mold, preventive spray on tomato seedlings; settings: 10 ppm; gray mold on tomato; 100 = 100% disease control, 0 = no control
Phytophthora infestans = type: in vivo; settings: 10 ppm; tomato late blight; 100 = 100% disease control, 0 = no control
[2] = tested on: Erysiphe graminis f sp. tritici; assay: Test G: wheat powdery mildew, preventive spray on wheat seedlings; settings: 10 ppm; wheat powdery mildew; 100 = 100% disease control, 0 = no control
Zymoseptoria tritici = assay: Test E: wheat leaf blotch, preventive spray on wheat seedlings; settings: 10 ppm; wheat leaf blotch; 100 = 100% disease control, 0 = no control
Stagonospora nodorum = assay: Test D: wheat glume blotch, preventive spray on wheat seedlings; settings: 10 ppm; wheat glume blotch; 100 = 100% disease control, 0 = no control
From the text: as §1
The test solution was sprayed to the point of run-off on wheat seedlings. The following day the seedlings were inoculated with a spore suspension of Stagonospora nodorum (also known as Septoria nodorum; the causal agent of wheat glume blotch) and incubated in a saturated atmosphere at 20° C. for 48 h, and then moved to a growth chamber at 20° C. for 6 days, after which time visual disease ratings were made.
Compounds with an asterisks (*) were applied at a concentration of 50 ppm, otherwise test solutions were applied at 10 ppm.

## OC(Cn1cncn1)(C1=NOC(COc2ccc(C(F)(F)F)cc2)C1)c1ccc(Cl)cc1 (single isomer, unassigned) [Compound 63]
[1]
  Test F rating (% disease control): 100%
Plasmopara viticola
  Test A rating (% disease control): 3%
Botrytis cinerea
  Test B rating (% disease control): 0%
Phytophthora infestans
  Test C rating (% disease control): 0%
[2]
  Test G rating (% disease control): 100%
Zymoseptoria tritici
  Test E rating (% disease control): 97%
Stagonospora nodorum
  Test D rating (% disease control): 41%

## OC(Cn1cncn1)(C1=NOC(COc2ccc(C(F)(F)F)cc2)C1)c1ccc(Cl)cc1 (single isomer, unassigned) [Compound 64]
[1]
  Test F rating (% disease control): 80%
Plasmopara viticola
  Test A rating (% disease control): 12%
Botrytis cinerea
  Test B rating (% disease control): 0%
Phytophthora infestans
  Test C rating (% disease control): 0%
[2]
  Test G rating (% disease control): 94%
Zymoseptoria tritici
  Test E rating (% disease control): 2%
Stagonospora nodorum
  Test D rating (% disease control): 50%

## OC(Cn1cncn1)(C1=NOC(Cn2ccc(-c3ccc(Cl)cc3)n2)C1)c1ccc(Cl)cc1 (single isomer, unassigned) [Compound 65]
[1]
  Test F rating (% disease control): 100%
Plasmopara viticola
  Test A rating (% disease control): 3%
Botrytis cinerea
  Test B rating (% disease control): 0%
Phytophthora infestans
  Test C rating (% disease control): 0%
[2]
  Test G rating (% disease control): 98%
Zymoseptoria tritici
  Test E rating (% disease control): 0%
Stagonospora nodorum
  Test D rating (% disease control): 0%

## OC(Cn1cncn1)(C1=NOC(Cn2ccc(-c3ccc(Cl)cc3)n2)C1)c1ccc(Cl)cc1 (single isomer, unassigned) [Compound 66]
[1]
  Test F rating (% disease control): 98%
Plasmopara viticola
  Test A rating (% disease control): 3%
Botrytis cinerea
  Test B rating (% disease control): 0%
Phytophthora infestans
  Test C rating (% disease control): 0%
[2]
  Test G rating (% disease control): 97%
Zymoseptoria tritici
  Test E rating (% disease control): 1%
Stagonospora nodorum
  Test D rating (% disease control): 0%

## OC(Cn1cncn1)(C1=NOC(Cn2ccc(-c3ccc(C(F)(F)F)cc3)n2)C1)c1ccc(Cl)cc1 (single isomer, unassigned) [Compound 67]
[1]
  Test F rating (% disease control): 100%
Plasmopara viticola
  Test A rating (% disease control): 13%
Botrytis cinerea
  Test B rating (% disease control): 0%
Phytophthora infestans
  Test C rating (% disease control): 0%
[2]
  Test G rating (% disease control): 99%
Zymoseptoria tritici
  Test E rating (% disease control): 0%
Stagonospora nodorum
  Test D rating (% disease control): 0%

## OC(Cn1cncn1)(C1=NOC(Cn2ccc(-c3ccc(C(F)(F)F)cc3)n2)C1)c1ccc(Cl)cc1 (single isomer, unassigned) [Compound 68]
[1]
  Test F rating (% disease control): 99%
Plasmopara viticola
  Test A rating (% disease control): 3%
Botrytis cinerea
  Test B rating (% disease control): 0%
Phytophthora infestans
  Test C rating (% disease control): 0%
[2]
  Test G rating (% disease control): 95%
Zymoseptoria tritici
  Test E rating (% disease control): 2%
Stagonospora nodorum
  Test D rating (% disease control): 0%

## CCCC(O)(Cn1cncn1)C1=NOC(c2ccc(Cl)cc2)C1 (single isomer, unassigned) [Compound 82]
[1]
  Test F rating (% disease control): 98%
Plasmopara viticola
  Test A rating (% disease control): 1%
Botrytis cinerea
  Test B rating (% disease control): 33%
Phytophthora infestans
  Test C rating (% disease control): 0%
[2]
  Test G rating (% disease control): 100%
Zymoseptoria tritici
  Test E rating (% disease control): 0%
Stagonospora nodorum
  Test D rating (% disease control): 99%

## CCCC(O)(Cn1cncn1)C1=NOC(c2ccc(Cl)cc2)C1 (single isomer, unassigned) [Compound 83]
[1]
  Test F rating (% disease control): 99%
Plasmopara viticola
  Test A rating (% disease control): 1%
Botrytis cinerea
  Test B rating (% disease control): 0%
Phytophthora infestans
  Test C rating (% disease control): 0%
[2]
  Test G rating (% disease control): 99%
Zymoseptoria tritici
  Test E rating (% disease control): 0%
Stagonospora nodorum
  Test D rating (% disease control): 87%

## C=CCC(O)(Cn1cncn1)C1=NOC(c2ccc(Cl)cc2)C1 (single isomer, unassigned) [Compound 84]
[1]
  Test F rating (% disease control): 9%
Plasmopara viticola
  Test A rating (% disease control): 11%
Botrytis cinerea
  Test B rating (% disease control): 94%
Phytophthora infestans
  Test C rating (% disease control): 0%
[2]
  Test G rating (% disease control): 95%
Zymoseptoria tritici
  Test E rating (% disease control): 0%
Stagonospora nodorum
  Test D rating (% disease control): 73%

## C=CCC(O)(Cn1cncn1)C1=NOC(c2ccc(Cl)cc2)C1 (single isomer, unassigned) [Compound 85]
[1]
  Test F rating (% disease control): 0%
Plasmopara viticola
  Test A rating (% disease control): 19%
Botrytis cinerea
  Test B rating (% disease control): 0%
Phytophthora infestans
  Test C rating (% disease control): 0%
[2]
  Test G rating (% disease control): 87%
Zymoseptoria tritici
  Test E rating (% disease control): 0%
Stagonospora nodorum
  Test D rating (% disease control): 68%

## OC(Cc1ccc(Cl)cc1)(Cn1cncn1)C1=NOC(c2ccc(Cl)cc2)C1 (single isomer, unassigned) [Compound 93]
[1]
  Test F rating (% disease control): 100%
Plasmopara viticola
  Test A rating (% disease control): 0%
Botrytis cinerea
  Test B rating (% disease control): 0%
Phytophthora infestans
  Test C rating (% disease control): 0%
[2]
  Test G rating (% disease control): 100%
Zymoseptoria tritici
  Test E rating (% disease control): 4%
Stagonospora nodorum
  Test D rating (% disease control): 99%

## OC(Cc1ccc(Cl)cc1)(Cn1cncn1)C1=NOC(c2ccc(Cl)cc2)C1 (single isomer, unassigned) [Compound 94]
[1]
  Test F rating (% disease control): 100%
Plasmopara viticola
  Test A rating (% disease control): 0%
Botrytis cinerea
  Test B rating (% disease control): 0%
Phytophthora infestans
  Test C rating (% disease control): 0%
[2]
  Test G rating (% disease control): 99%
Zymoseptoria tritici
  Test E rating (% disease control): 0%
Stagonospora nodorum
  Test D rating (% disease control): 98%
